Data taken from the NIST ThermoML archive (doi:10.1016/j.fluid.2008.03.013).

Details: Transpiration method

CC1COC(=O)O1 (stereo unspecified) [4-methyl-1,3-dioxolan-2-one]
Liquid
Details	vapor or sublimation pressure [kPa]
298.4 K	0.0085
303.3 K	0.01247
308.2 K	0.0181
311.3 K	0.0223
313.2 K	0.02529
318.2 K	0.03723
321.2 K	0.04503
322.7 K	0.05193
324.2 K	0.05893
326.6 K	0.06788
329.6 K	0.08307
332.7 K	0.1019
335.7 K	0.1281
337.7 K	0.1375
338.8 K	0.1525
340.8 K	0.1721
341.8 K	0.1787
344.9 K	0.2178

O=C1OCCO1 [ethylene carbonate]
Details	vapor or sublimation pressure [kPa]
280.6 K, Crystal	0.00062
286.2 K, Crystal	0.00119
291.3 K, Crystal	0.002
295.5 K, Crystal	0.00325
299.4 K, Crystal	0.00472
303.2 K, Crystal	0.00675
304.4 K, Crystal	0.00785
306.4 K, Crystal	0.00907
308.4 K, Crystal	0.01077
310.3 K, Liquid	0.012
314.4 K, Liquid	0.01615
314.5 K, Liquid	0.01614
317.3 K, Liquid	0.02
320.3 K, Liquid	0.02499
320.4 K, Liquid	0.02475
323.5 K, Liquid	0.0305
324.4 K, Liquid	0.03281
327.4 K, Liquid	0.03939
328.6 K, Liquid	0.04312
331.3 K, Liquid	0.05119
333.6 K, Liquid	0.05962
335.4 K, Liquid	0.06848
338.7 K, Liquid	0.08312
341.4 K, Liquid	0.0978
342.3 K, Liquid	0.1031
343.8 K, Liquid	0.1094
345.2 K, Liquid	0.1213
347.6 K, Liquid	0.1379
349 K, Liquid	0.154
352.4 K, Liquid	0.1869
354 K, Liquid	0.2037
357.5 K, Liquid	0.2473
358.9 K, Liquid	0.2642
360.6 K, Liquid	0.292
363.2 K, Liquid	0.3283
364.1 K, Liquid	0.3486
366.7 K, Liquid	0.4047
369.5 K, Liquid	0.4694

O=C1OCC(CO)O1 (stereo unspecified) [glycerine carbonate]
Liquid
Details	vapor or sublimation pressure [kPa]
330.2 K	0.00029
333.2 K	0.00039
338.3 K	0.00062
343.2 K	0.00091
348.4 K	0.00144
351.2 K	0.00173
355.5 K	0.0025
359.8 K	0.00368
360.6 K	0.00362
363.7 K	0.00433
366.4 K	0.00542
369.4 K	0.00681
371.8 K	0.00782
373.2 K	0.00886
377.2 K	0.01171
384.5 K	0.02019
387.3 K	0.02392
388 K	0.02471
392.7 K	0.03339
398.5 K	0.04694

CCC1COC(=O)O1 (stereo unspecified) [1,2-butylene carbonate]
Liquid
Details	vapor or sublimation pressure [kPa]
288.6 K	0.00186
293.5 K	0.00284
298.5 K	0.00453
303.4 K	0.00649
307.3 K	0.0087
310.3 K	0.01164
313.3 K	0.01439
316.3 K	0.01837
319.3 K	0.02281
322.5 K	0.02805
327.4 K	0.04092
330.3 K	0.04839
333.6 K	0.06415
338.7 K	0.086
343.8 K	0.1159
